From ChEMBL document CHEMBL4422663, “Suppression of Tumor Growth and Metastases by Targeted Intervention in Urokinase Activity with Cyclic Peptides” (J Med Chem, 2019) come the findings set out here.

The subject of data set [1] is Lewis lung carcinoma cell line. Kind of data set: Antitumor activity against mouse LLC allografted in C57Bl6/N mouse assessed as inhibition olf tumor growth at 200 mg/kg/day, ip. Type of data set: functional. The note with it: read-out: TGI.
Data set [2] can be described thus: Drug level in blood of mouse LLC allografted in mouse at 100 mg/kg, ip. In kind it is ADME, organism-based. The note with it: in vivo, read-out: Drug uptake.
Data set [3] has as its system Lewis lung carcinoma cell line. The experiment in a line: Antimetastatic activity against mouse LLC allografted in mouse assessed as reduction in tumor nodule numbers at 100 mg/kg, ip. In kind it is functional. More on the design: scale not given: the % may be the effect or the level left.
Data set [4] is described as follows: Antitumor activity against rat BN472 cells implanted in Norwegian BN rat model of orthotopical breast cancer assessed as inhibition of tumor growth at 1 mg/kg/day, sc. Type of data set: functional. The settings on record: read-out: TGI.
Data set [5] addresses Coagulation factor X (Homo sapiens, UniProt P00742). The experiment in a line: Inhibition of factor 10a (unknown origin).
Data set [6] deals with Tissue-type plasminogen activator (Homo sapiens, UniProt P00750). Kind of data set: Inhibition of tPA (unknown origin).
Chain of Tissue-type plasminogen activator (P00750 whole entry): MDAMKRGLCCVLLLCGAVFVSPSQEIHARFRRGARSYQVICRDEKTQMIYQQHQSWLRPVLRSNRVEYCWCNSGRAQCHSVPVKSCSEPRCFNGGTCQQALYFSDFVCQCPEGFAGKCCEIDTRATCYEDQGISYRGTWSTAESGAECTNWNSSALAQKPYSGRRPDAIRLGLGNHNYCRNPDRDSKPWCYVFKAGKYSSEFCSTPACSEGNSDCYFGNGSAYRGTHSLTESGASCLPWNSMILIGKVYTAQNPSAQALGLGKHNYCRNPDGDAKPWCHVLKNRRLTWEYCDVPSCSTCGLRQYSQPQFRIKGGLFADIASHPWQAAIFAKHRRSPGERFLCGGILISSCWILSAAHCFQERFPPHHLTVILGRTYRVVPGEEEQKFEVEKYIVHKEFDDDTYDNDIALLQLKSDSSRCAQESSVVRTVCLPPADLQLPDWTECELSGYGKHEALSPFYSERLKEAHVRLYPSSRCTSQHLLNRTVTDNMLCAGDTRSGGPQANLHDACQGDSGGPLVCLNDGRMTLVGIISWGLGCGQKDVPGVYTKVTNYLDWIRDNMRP
Data set [7] addresses Urokinase-type plasminogen activator (Homo sapiens, UniProt P00749). Kind of data set: Inhibition of uPA (unknown origin).
Data set [8] concerns the target Prothrombin (Homo sapiens, UniProt P00734). Kind of data set: Inhibition of thrombin (unknown origin).
For data set [9], the target named is Plasminogen (Homo sapiens, UniProt P00747). Kind of data set: Inhibition of plasmin (unknown origin).
Chain of Plasminogen (P00747 97-580 limits assumed): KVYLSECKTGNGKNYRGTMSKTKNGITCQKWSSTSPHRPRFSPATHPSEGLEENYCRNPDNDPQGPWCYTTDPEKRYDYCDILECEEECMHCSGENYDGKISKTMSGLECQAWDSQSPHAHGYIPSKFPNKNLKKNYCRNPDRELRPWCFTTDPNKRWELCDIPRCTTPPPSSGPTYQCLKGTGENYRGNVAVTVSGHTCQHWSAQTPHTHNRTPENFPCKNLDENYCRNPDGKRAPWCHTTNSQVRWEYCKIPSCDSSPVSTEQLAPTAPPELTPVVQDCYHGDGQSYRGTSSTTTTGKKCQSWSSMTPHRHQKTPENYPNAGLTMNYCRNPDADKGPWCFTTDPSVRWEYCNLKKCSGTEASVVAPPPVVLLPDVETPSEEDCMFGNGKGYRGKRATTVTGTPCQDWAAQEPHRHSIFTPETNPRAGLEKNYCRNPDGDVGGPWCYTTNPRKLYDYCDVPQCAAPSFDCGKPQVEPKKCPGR
Chain of Plasminogen (P00747 581-810 limits assumed): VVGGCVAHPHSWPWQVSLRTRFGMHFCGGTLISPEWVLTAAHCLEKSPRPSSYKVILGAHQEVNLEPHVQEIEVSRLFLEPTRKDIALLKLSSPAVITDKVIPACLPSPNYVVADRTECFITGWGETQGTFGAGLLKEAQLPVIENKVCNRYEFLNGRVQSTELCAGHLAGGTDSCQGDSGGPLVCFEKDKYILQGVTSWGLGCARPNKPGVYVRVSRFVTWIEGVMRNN

Chain of Coagulation factor X (P00742 41-179 limits assumed): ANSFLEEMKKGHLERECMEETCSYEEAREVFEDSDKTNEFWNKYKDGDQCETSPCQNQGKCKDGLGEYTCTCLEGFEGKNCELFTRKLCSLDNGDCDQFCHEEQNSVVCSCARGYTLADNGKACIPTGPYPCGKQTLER
Chain of Coagulation factor X (P00742 235-488 limits assumed): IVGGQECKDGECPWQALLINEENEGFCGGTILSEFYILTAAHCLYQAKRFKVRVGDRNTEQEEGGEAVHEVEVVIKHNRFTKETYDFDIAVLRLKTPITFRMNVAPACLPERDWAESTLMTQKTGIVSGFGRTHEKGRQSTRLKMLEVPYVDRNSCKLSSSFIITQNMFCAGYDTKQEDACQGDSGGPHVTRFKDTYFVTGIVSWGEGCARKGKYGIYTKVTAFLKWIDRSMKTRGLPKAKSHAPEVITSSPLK

As to `N=C(N)c1ccc(CNC(=O)[C@H](CO)NC(=O)[C@@H](CO)NS(=O)(=O)Cc2ccccc2)cc1`, the inhibition in vivo at 200 mg/kg/day in data set [1] came out at 43%. The concentration in data set [2] came to 1010 µM. The Activity in data set [3] is 41.5%.
What is called Ki is a dissociation constant, usually derived from enzyme kinetics or from competition with a known ligand. Take `CCOC(=O)N1CCN(C(=O)[C@H](Cc2cccc(C(=N)N)c2)NS(=O)(=O)c2c(C(C)C)cc(C(C)C)cc2C(C)C)CC1`: the inhibition in vivo at 1 mg/kg/day in data set [4] stood at 53%. The Ki in [5] is 0.98 µM; in data set [6], 2.51 µM; in data set [7], 0.65 µM; in data set [8], 0.5 µM; in data set [9], 1.46 µM.
